Measurements reported in patent US10266528B2, “2-oxo-imidazopyridines as reversible BTK inhibitors and uses thereof” (Merck Patent GmbH, priority 2016, dated 2019).

Tests used:
full-length human BTK = full-length human BTK (Homo sapiens (Human), UniProt Q06187); experiment: Microfluidic off-chip mobility shift kinase assay against BTK enzyme; assay type: biochemical; details: 90 min at 27° C.
Method: Example 23. Microfluidic Off-Chip Mobility Shift Assay Protocol for Potency Assessment Against BTK Enzyme
The protocol below describes microfluidic, off-chip mobility shift kinase assay to measure inherent potency of compounds against BTK enzyme.
5 uL of enzyme buffer and 7.5 uL of ATP/kinKDR peptide substrate mix were added to Matrix (#115304) 384-well, sterile, polypropylene plates (Thermo Fisher Scientific, Hudson, N.H.) with 125 nL of serially diluted compounds prepared in 100% DMSO, and incubated for 90 min. at 27° C. Following the incubation period, reactions were stopped by adding 60 uL stop buffer consisting of 100 mM HEPES, pH 7.5, 0.015% Brij-35 (30%), 0.277% Coating Reagent #3 (Caliper Life Sciences, Mountain View, Calif.), 5% DMSO. Stopped reactions were monitored at −2 PSI, −3000 V/−700 V in a LabChip 3000 plate reader from Caliper Life Sciences, a PerkinElmer Company (Hopkinton, Mass.), and the activity was measured by off-chip mobility shift assay measuring the charge/mass difference between substrate and product resulting from peptide phosphorilation. IC50 and efficacy were determined by plotting log [Inhibitor] vs. % Activity in GeneData Screener (Basel, Switzerland).

[1] = test system: anti-IgM-induced expression of CD69 in human peripheral blood mononuclear cells (PBMCs); experiment: PBMC IC50 assay: anti-IgM-induced CD69 expression on CD19 positive cells; assay type: cell-based; details: anti-IgM stimulation, CD69 expression on CD19 positive B cells
Method: Btk is critical for mediating the signalling of B cell antigen receptor (BCR) after anti-IgM stimulation. Based on this principle, a functional cell-based assay was established to determine the potency of compounds at inhibiting anti-IgM-induced expression of CD69, a downstream BCR signaling event, in freshly isolated human peripheral blood mononuclear cells (PBMCs). In the assay, a 90 μl PBMC suspension containing 2.5×10^5 cells was pre-treated with 10 μl of test compound at various concentrations for an hour, and then incubated overnight (approximately 16-18 hours) with 5 μl 420 μg/ml affiniPure F(ab′)2 fragment goat anti-human IgM Fc fragment per well (Dianova, Cat. No.: 109-006-129). After the incubation, the cells were washed and immunostained with an APC-labeled mouse anti-human CD69 (BD Biosciences; clone: FN50), a PerCP-Cy5.5 labelled mouse anti-human CD19 (BD Biosciences; clone: SJ25C1) and a FITC-labelled mouse anti-human CD3 (BD Biosciences; clone: HIT3a), and fixed for flow cytometric analysis of CD69 expression on CD19 positive cells (B cells). The percentage of CD69 expressing CD19 positive cells was plotted against the concentrations of test compounds to obtain a concentration response curve, and calculate an IC50 value as a measure of the potency of test compounds in the assay.

WB = WB IC50 (no method described); assay type: cell-based

Chain of full-length human BTK (Q06187 whole entry): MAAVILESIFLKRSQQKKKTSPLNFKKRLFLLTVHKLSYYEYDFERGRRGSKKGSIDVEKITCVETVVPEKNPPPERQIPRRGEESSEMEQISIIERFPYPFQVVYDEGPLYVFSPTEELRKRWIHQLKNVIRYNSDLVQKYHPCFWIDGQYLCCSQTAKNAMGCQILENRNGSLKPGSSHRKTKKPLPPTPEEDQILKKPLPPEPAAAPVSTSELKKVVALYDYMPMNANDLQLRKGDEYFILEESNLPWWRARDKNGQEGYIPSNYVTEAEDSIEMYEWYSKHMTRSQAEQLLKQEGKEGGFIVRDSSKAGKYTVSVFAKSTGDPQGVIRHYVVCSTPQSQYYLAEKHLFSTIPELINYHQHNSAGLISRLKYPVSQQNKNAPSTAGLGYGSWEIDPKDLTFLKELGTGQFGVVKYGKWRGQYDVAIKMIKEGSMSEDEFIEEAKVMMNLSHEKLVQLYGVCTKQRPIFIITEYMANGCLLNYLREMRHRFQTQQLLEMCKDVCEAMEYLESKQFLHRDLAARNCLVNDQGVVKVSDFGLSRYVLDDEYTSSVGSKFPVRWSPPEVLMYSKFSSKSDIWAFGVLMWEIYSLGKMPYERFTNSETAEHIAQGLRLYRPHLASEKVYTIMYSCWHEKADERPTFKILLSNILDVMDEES

**Q.** CC(C)(C)c1noc(C(=O)NC2CCCCc3cc(-c4ccnc5[nH]c(=O)[nH]c45)ccc32)n1 (single isomer, unassigned) [Compound 13, 3-tert-Butyl-[1,2,4]oxadiazole-5-carboxylic Acid [2-(2-oxo-2,3-dihydro-1H-imidazo[4,5-b]pyridin-7-yl)-6,7,8,9-tetrahydro-5H-benzocyclohepten-5-yl]-amide] was tested. Which IC50 (full-length human BTK) did it give?
**A.** 10 to 100 nM

**Q.** With CC(C)(C)c1ccc(C(=O)NCc2ccc(-c3ccnc4[nH]c(=O)[nH]c34)cc2F)cn1 [Compound 8, 6-tert-Butyl-N-[2-fluoro-4-(2-oxo-2,3-dihydro-1H-imidazo[4,5-b]pyridin-7-yl)-benzyl]-nicotinamide] as the compound, how does the IC50 (full-length human BTK) read?
**A.** > 1000 nM

**Q.** With CC(C)(C)c1nc(C(=O)NCc2ccc(-c3ccnc4[nH]c(=O)[nH]c34)cc2C(F)(F)F)no1 [Compound 19, 5-tert-Butyl-[1,2,4]oxadiazole-3-carboxylic Acid 4-(2-oxo-2,3-dihydro-1H-imidazo[4,5-b]pyridin-7-yl)-2-trifluoromethyl-benzylamide] as the compound, how does the IC50 (full-length human BTK) read?
**A.** < 10 nM

**Q.** Which IC50 (full-length human BTK) does the source give for CC1(C)Cc2cc3n(c2C1)CCN(c1cc(F)cc(-c2ccnc4[nH]c(=O)[nH]c24)c1)C3=O [Compound 22, 2-[3-Fluoro-5-(2-oxo-2,3-dihydro-1H-imidazo[4,5-b]pyridin-7-yl)-phenyl]-7,7-dimethyl-3,4,7,8-tetrahydro-2H,6H-cyclopenta[4,5]pyrrolo[1,2-a]pyrazin-1-one] here?
**A.** 10 to 100 nM

**Q.** For CC(C)(C)C1CCN(C(=O)NCc2ccc(-c3ccnc4[nH]c(=O)[nH]c34)cc2F)C1 (centres unmarked) [Compound 5, 3-tert-Butyl-pyrrolidine-1-carboxylic Acid 2-fluoro-4-(2-oxo-2,3-dihydro-1H-imidazo[4,5-b]pyridin-7-yl)-benzylamide], which IC50 (full-length human BTK) is on record?
**A.** 10 to 100 nM

**Q.** CC(C)(C)c1cc(C(=O)NC2CCCCc3cc(-c4ccnc5[nH]c(=O)[nH]c45)ccc32)on1 (centres unmarked) [Compound 14, Butyl-isoxazole-5-carboxylic Acid [2-(2-oxo-2,3-dihydro-1H-imidazo[4,5-b]pyridin-7-yl)-6,7,8,9-tetrahydro-5H-benzocyclohepten-5-yl]-amide] was tested. Which IC50 ([1]; Homo sapiens, PBMC) did it give?
**A.** 100 to 1000 nM

**Q.** CC(C)(C)c1noc(C(=O)NCc2ccc(-c3ccnc4[nH]c(=O)[nH]c34)c(CO)c2)n1 [Compound 10, 3-tert-Butyl-[1,2,4]oxadiazole-5-carboxylic Acid 3-hydroxymethyl-4-(2-oxo-2,3-dihydro-1H-imidazo[4,5-b]pyridin-7-yl)-benzylamide] was tested. Which IC50 (full-length human BTK) did it give?
**A.** > 1000 nM

**Q.** How did the IC50 ([1]; Homo sapiens, PBMC) turn out when O=C(NCc1ccc(-c2ccnc3[nH]c(=O)[nH]c23)cc1F)NCC1CC2CCC1C2 (centres unmarked) [Compound 4, 1-Bicyclo[2.2.1]hept-2-ylmethyl-3-[2-fluoro-4-(2-oxo-2,3-dihydro-1H-imidazo[4,5-b]pyridin-7-yl)-benzyl]-urea] was run?
**A.** > 1000 nM

**Q.** And the IC50 (full-length human BTK)?
**A.** 10 to 100 nM

**Q.** Which IC50 (full-length human BTK) does the source give for CC(C)(O)c1ccc(C(=O)NCc2ccc(-c3ccnc4[nH]c(=O)[nH]c34)cc2F)cc1 [Compound 9, N-[2-Fluoro-4-(2-oxo-2,3-dihydro-1H-imidazo[4,5-b]pyridin-7-yl)-benzyl]-4-(1-hydroxy-1-methyl-ethyl)-benzamide] here?
**A.** > 1000 nM

**Q.** CC(C)(C)c1nc(C(=O)NCc2ccc(-c3ccnc4[nH]c(=O)[nH]c34)cc2F)cs1 [Compound 6, 2-tert-Butyl-thiazole-4-carboxylic Acid 2-fluoro-4-(2-oxo-2,3-dihydro-1H-imidazo[4,5-b]pyridin-7-yl)-benzylamide] was tested. Which IC50 (full-length human BTK) did it give?
**A.** 10 to 100 nM

**Q.** For CC(C)(C)c1noc(C(=O)NCc2ccc(-c3ccnc4[nH]c(=O)[nH]c34)cc2C(F)(F)F)n1 [Compound 1, 3-tert-Butyl-[1,2,4]oxadiazole-5-carboxylic Acid 4-(2-oxo-2,3-dihydro-1H-imidazo[4,5-b]pyridine-7-yl)-2-trifluoromethyl-benzylamide], which IC50 ([1]; Homo sapiens, PBMC) is on record?
**A.** 100 to 1000 nM

**Q.** And the IC50 (WB)?
**A.** 100 to 1000 nM

**Q.** And the IC50 (full-length human BTK)?
**A.** < 10 nM

**Q.** Which IC50 [1] does the source give for CC(C)(C)c1noc(C(=O)NC2CCCCc3cc(-c4ccnc5[nH]c(=O)[nH]c45)ccc32)n1 (centres unmarked) [Compound 11, 3-tert-Butyl-[1,2,4]oxadiazole-5-carboxylic Acid [2-(2-oxo-2,3-dihydro-1H-imidazo[4,5-b]pyridin-7-yl)-6,7,8,9-tetrahydro-5H-benzocyclohepten-5-yl]-amide] here?
**A.** 10 to 100 nM

**Q.** And the IC50 (full-length human BTK)?
**A.** < 10 nM

**Q.** What does the source list for CC(C)(C)c1noc(C(=O)NCc2ccc(-c3ccnc4[nH]c(=O)[nH]c34)cc2C2CC2)n1 [Compound 17, 3-tert-Butyl-[1,2,4]oxadiazole-5-carboxylic Acid 2-cyclopropyl-4-(2-oxo-2,3-dihydro-1H-imidazo[4,5-b]pyridin-7-yl)-benzylamide]?
**A.** IC50 ([1]; Homo sapiens, PBMC): 100 to 1000 nM; IC50 (full-length human BTK): < 10 nM

**Q.** Cc1cc(-c2ccnc3[nH]c(=O)[nH]c23)ccc1CNC(=O)c1nc(C(C)(C)C)no1 [Compound 23, 3-tert-Butyl-[1,2,4]oxadiazole-5-carboxylic Acid 2-methyl-4-(2-oxo-2,3-dihydro-1H-imidazo[4,5-b]pyridin-7-yl)-benzylamide] was tested. Which IC50 ([1]; Homo sapiens, PBMC) did it give?
**A.** 10 to 100 nM

**Q.** What about the IC50 (WB) of the same compound?
**A.** 10 to 100 nM

**Q.** And the IC50 (full-length human BTK)?
**A.** < 10 nM

**Q.** How did the IC50 (full-length human BTK) turn out when CC(C)(C)c1nnc(C(=O)NCc2ccc(-c3ccnc4[nH]c(=O)[nH]c34)cc2F)o1 [Compound 7, 5-tert-Butyl-[1,3,4]oxadiazole-2-carboxylic Acid 2-fluoro-4-(2-oxo-2,3-dihydro-1H-imidazo[4,5-b]pyridin-7-yl)-benzylamide] was run?
**A.** 100 to 1000 nM

**Q.** With CC(C)(C)c1noc(C(=O)NC2CCCCc3cc(-c4ccnc5[nH]c(=O)[nH]c45)ccc32)n1 (centres unmarked) [Compound 12, 3-tert-Butyl-[1,2,4]oxadiazole-5-carboxylic Acid [2-(2-oxo-2,3-dihydro-1H-imidazo[4,5-b]pyridin-7-yl)-6,7,8,9-tetrahydro-5H-benzocyclohepten-5-yl]-amide] as the compound, how does the IC50 ([1]; Homo sapiens, PBMC) read?
**A.** < 10 nM

**Q.** What about the IC50 (full-length human BTK) of the same compound?
**A.** < 10 nM

**Q.** CC(C)(C)c1noc(C(=O)NCc2ccc(-c3ccnc4[nH]c(=O)[nH]c34)cc2F)n1 [Compound 2, 3-tert-Butyl-[1,2,4]oxadiazole-5-carboxylic Acid 2-fluoro-4-(2-oxo-2,3-dihydro-1H-imidazo[4,5-b]pyridine-7-yl)-benzylamide] was tested. Which IC50 ([1]; Homo sapiens, PBMC) did it give?
**A.** 100 to 1000 nM

**Q.** And the IC50 (WB)?
**A.** 100 to 1000 nM

**Q.** What about the IC50 (full-length human BTK) of the same compound?
**A.** < 10 nM

**Q.** CC1(C)Cc2cc3n(c2C1)CCN(c1cc(F)cc(-c2ccnc4[nH]c(=O)[nH]c24)c1CO)C3=O [Compound 21, 2-[5-Fluoro-2-hydroxymethyl-3-(2-oxo-2,3-dihydro-1H-imidazo[4,5-b]pyridin-7-yl)-phenyl]-7,7-dimethyl-3,4,7,8-tetrahydro-2H,6H-cyclopenta[4,5]pyrrolo[1,2-a]pyrazin-1-one] was tested. Which IC50 (full-length human BTK) did it give?
**A.** < 10 nM

**Q.** CC(C)(C)c1nc(C(=O)NCc2ccc(-c3ccnc4[nH]c(=O)[nH]c34)cc2F)no1 [Compound 3, 5-tert-Butyl-[1,2,4]oxadiazole-3-carboxylic Acid 2-fluoro-4-(2-oxo-2,3-dihydro-1H-imidazo[4,5-b]pyridin-7-yl)-benzylamide] was tested. Which IC50 (full-length human BTK) did it give?
**A.** 10 to 100 nM

**Q.** Which IC50 (full-length human BTK) does the source give for CC(C)(C)c1noc(C(=O)NC2CCCc3cc(-c4ccnc5[nH]c(=O)[nH]c45)ccc32)n1 (centres unmarked) [Compound 15, 3-tert-Butyl-[1,2,4]oxadiazole-5-carboxylic Acid [6-(2-oxo-2,3-dihydro-1H-imidazo[4,5-b]pyridin-7-yl)-1,2,3,4-tetrahydro-naphthalen-1-yl]-amide] here?
**A.** 10 to 100 nM

**Q.** How did the IC50 ([1]; Homo sapiens, PBMC) turn out when Cc1cc(-c2ccnc3[nH]c(=O)[nH]c23)c(F)cc1CNC(=O)c1nc(C(C)(C)C)no1 [Compound 16, 3-tert-Butyl-[1,2,4]oxadiazole-5-carboxylic Acid 5-fluoro-2-methyl-4-(2-oxo-2,3-dihydro-1H-imidazo[4,5-b]pyridin-7-yl)-benzylamide] was run?
**A.** 100 to 1000 nM

**Q.** And the IC50 (full-length human BTK)?
**A.** < 10 nM

**Q.** CC1(c2noc(C(=O)NCc3ccc(-c4ccnc5[nH]c(=O)[nH]c45)cc3C(F)(F)F)n2)CC1 [Compound 18, 3-(1-Methyl-cyclopropyl)-[1,2,4]oxadiazole-5-carboxylic Acid 4-(2-oxo-2,3-dihydro-1H-imidazo[4,5-b]pyridin-7-yl)-2-trifluoromethyl-benzylamide] was tested. Which IC50 ([1]; Homo sapiens, PBMC) did it give?
**A.** 10 to 100 nM

**Q.** What about the IC50 (WB) of the same compound?
**A.** 100 to 1000 nM

**Q.** What about the IC50 (full-length human BTK) of the same compound?
**A.** < 10 nM
